# How the values were obtained:
# human PI3Kδ = human PI3Kδ (Homo sapiens (Human), UniProt O00329); test: Biochemical assay PI3Kdelta (Adapta TR-FRET); conditions: read-out: PI3Kd/IC50
# From the text: Catalytically active human PI3Kα, PI3Kβ, PI3Kδ, and mTOR were cloned, expressed and purtified as described ([…], Stauffer F, Brueggen J, Furet […], de Pover A, Schoemaker K, Fabbro D, Gabriel D, Simonen M, Murphy […], Garcia-Echeverria C (2008), Mol Cancer Ther. 7:1851-63 and […], Huh […], Schoemaker K, De Pover […], Garcia-Echeverria C, Voliva CF (2011), Mol. Cancer Ther. accepted). The TR-FRET AdaptaTM Universal Kinase Assay Kit was purchased from Invitrogen Corporation (Carlsbad/CA, USA) (Cat. No. PV5099). The kit contains the following reagents: Adapta Eu-anti-ADP Antibody (Europium labeled anti-ADP antibody in HEPES buffered saline, Cat. No. PV5097), Alexa Fluor® 647-labeled ADP tracer (Alexa Fluor® 647-labeled ADP tracer in HEPES buffered saline, Cat. No. PV5098), proprietary TR-FRET dilution buffer pH 7.5 (Cat. No. PV3574). PIK3CD substrate Phosphatidylinositol was obtained from Invitrogen (vesicules consisting of 2 mM PI in 50 mM HEPES pH7.5; Cat. No. PV5371). […] TR-FRET assays for protein kinases use a long-lifetime lanthanide Terbium or Europium chelates as the donor species which overcome interference from compound autofluorescence or light scatter from precipitated compounds, by introducing a delay after excitation by a flashlamp excitation source. Results are often expressed as a ratio of the intensities of the acceptor and donor fluorophores. The ratiometric nature of such a value corrects for differences in assay volumes between wells, as well as corrects for quenching effects due to colored compounds. The AdaptaTM assay can be divided into two phases: a kinase reaction phase and an ADP detection phase. In the kinase reaction phase, all kinase reaction components are added to the well and the reaction is allowed to incubate for a set period of time specific for each kinase. After the reaction, a detection solution of Eu-labeled anti-ADP antibody, Alexa Fluor® 647-labeled ADP tracer, and EDTA (to stop the kinase reaction) are added to the assay well. ADP formed by the kinase reaction will displace the Alexa Fluor® 647-labeled ADP tracer from the antibody, resulting in a decrease in TR-FRET signal. In the presence of an inhibitor, the amount of ADP formed by the kinase reaction is reduced, and the resulting intact antibody-tracer interaction maintains a high TR-FRET signal. In the AdaptaTM assay, the donor (Europium-anti-ADP antibody) is excited at 340 nm and will transfer its energy to the acceptor (Alexa Fluor® 647-labeled ADP tracer). The emission from the Alexa Fluor® 647 can be monitored with a filter centered at 665 nm because it is located between the emission peaks of the donor, which is measured at 615/620 nm. […] Reactions were stopped with 5 μL of a mixture of EDTA containing the Eu-labeled anti-ADP antibody and the Alexa Fluor® 647-labeled ADP tracer in TR-FRET dilution buffer (proprietary to IVG). […] Data are analyzed using Excel fit software or Graphpad Prism. EC50 values were derived by fitting a sigmoidal dose-response curve to a plot of assay readout over inhibitor concentration. All fits were performed with the program XLfit4 (ID Business Solutions, Guildford, UK). […] All fits were performed with the program XLfit4 (ID Business Solutions, Guildford, UK).
# [1] = Photostability in light stability chamber; format: physicochemical; conditions: 1.0 mg/ml in ethanol, 19620 kJ/m^2 over 13 h, 15° C., UPLC 254 nm
# Method: Samples investigated for light stability were treated in a light stability chamber (Atlas CPS+, Serial Number 0704013). Solutions of 1.0 mg/ml in ethanol were prepared for each molecule and aliquots of 0.5 mL were dispensed into suitable micro tubes. All measurements were done in duplicate and compared to a reference wrapped in aluminium foil during light exposure. Solutions were exposed to 19620 kJ/m^2 over 13 h. Samples were kept at 15° C. during the experiment. […] The peak areas were automatically integrated, and the degradation percentage calculated as the difference between the corresponding peak area percentage of the reference sample and the average peak area percentage of the exposed samples (duplicate).
# human PI3Kβ = human PI3Kβ (Homo sapiens (Human), UniProt P42338); test: Biochemical assay PI3Kbeta (KinaseGlo luminescence); conditions: 1 μM ATP, read-out: PI3Kb/IC50
# From the text: Cancer Ther. accepted). […] (L-alpha-phosphatidylinositol (PI), Liver, Bovine) were obtained from Avanti Polar Lipid (Cat. […] (Avanti, Cat. No. 840046X) or L-α-phosphatidylinositol (PI) was obtained from Avanti Polar Lipid (Cat. […] Luminescence is a well established readout to determine ATP concentrations and can thus be used to follow the activity of many kinases regardless of their substrate. The Kinase Glo Luminescent Kinase Assay (Promega, Madison/WI, USA) is a homogeneous HTS method of measuring kinase activity by quantifying the amount of ATP remaining in solution following a kinase reaction. 50 nL of compound dilutions were dispensed onto black 384-well low volume Non Binding Styrene (NBS) plates (Costar Cat. No. […] L-α-phosphatidylinositol (PI), provided as 10 mg/ml solution in methanol, was transferred into a glass tube and dried under nitrogen beam. […] NVP-BGT226 was used as a reference compound and included in all assay plates in the form of 16 dilution points in duplicate. […] All fits were performed with the program XLfit4 (ID Business Solutions, Guildford, UK).
# human PI3Kδ, sequence (O00329 2-1044): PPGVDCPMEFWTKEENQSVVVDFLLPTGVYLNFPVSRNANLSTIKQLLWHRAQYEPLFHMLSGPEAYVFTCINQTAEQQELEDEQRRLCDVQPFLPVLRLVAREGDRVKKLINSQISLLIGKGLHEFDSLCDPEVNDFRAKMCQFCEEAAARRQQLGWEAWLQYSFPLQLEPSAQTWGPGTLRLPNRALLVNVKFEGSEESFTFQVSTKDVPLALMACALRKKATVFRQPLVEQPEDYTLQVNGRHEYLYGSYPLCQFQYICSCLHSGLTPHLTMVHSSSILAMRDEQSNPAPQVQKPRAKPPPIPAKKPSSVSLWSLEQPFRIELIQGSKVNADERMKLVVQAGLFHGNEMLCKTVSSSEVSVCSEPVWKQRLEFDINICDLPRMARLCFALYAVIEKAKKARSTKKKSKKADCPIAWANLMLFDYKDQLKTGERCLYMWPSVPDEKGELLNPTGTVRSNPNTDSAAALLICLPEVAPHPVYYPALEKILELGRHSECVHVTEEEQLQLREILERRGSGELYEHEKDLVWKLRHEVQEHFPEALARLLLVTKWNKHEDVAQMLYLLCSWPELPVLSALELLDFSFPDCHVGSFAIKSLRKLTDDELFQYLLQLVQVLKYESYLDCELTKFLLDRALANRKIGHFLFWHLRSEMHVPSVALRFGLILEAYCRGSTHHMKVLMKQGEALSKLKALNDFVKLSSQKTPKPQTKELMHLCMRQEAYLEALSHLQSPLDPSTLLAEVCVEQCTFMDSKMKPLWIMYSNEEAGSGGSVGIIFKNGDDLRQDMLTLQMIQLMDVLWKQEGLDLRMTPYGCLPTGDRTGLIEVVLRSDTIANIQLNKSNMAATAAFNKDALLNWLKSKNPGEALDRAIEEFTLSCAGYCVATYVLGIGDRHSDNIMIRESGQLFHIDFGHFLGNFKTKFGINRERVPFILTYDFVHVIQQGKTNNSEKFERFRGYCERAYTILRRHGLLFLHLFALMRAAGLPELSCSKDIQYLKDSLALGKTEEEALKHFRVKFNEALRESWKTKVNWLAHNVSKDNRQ
# human PI3Kβ, sequence (P42338 2-1070): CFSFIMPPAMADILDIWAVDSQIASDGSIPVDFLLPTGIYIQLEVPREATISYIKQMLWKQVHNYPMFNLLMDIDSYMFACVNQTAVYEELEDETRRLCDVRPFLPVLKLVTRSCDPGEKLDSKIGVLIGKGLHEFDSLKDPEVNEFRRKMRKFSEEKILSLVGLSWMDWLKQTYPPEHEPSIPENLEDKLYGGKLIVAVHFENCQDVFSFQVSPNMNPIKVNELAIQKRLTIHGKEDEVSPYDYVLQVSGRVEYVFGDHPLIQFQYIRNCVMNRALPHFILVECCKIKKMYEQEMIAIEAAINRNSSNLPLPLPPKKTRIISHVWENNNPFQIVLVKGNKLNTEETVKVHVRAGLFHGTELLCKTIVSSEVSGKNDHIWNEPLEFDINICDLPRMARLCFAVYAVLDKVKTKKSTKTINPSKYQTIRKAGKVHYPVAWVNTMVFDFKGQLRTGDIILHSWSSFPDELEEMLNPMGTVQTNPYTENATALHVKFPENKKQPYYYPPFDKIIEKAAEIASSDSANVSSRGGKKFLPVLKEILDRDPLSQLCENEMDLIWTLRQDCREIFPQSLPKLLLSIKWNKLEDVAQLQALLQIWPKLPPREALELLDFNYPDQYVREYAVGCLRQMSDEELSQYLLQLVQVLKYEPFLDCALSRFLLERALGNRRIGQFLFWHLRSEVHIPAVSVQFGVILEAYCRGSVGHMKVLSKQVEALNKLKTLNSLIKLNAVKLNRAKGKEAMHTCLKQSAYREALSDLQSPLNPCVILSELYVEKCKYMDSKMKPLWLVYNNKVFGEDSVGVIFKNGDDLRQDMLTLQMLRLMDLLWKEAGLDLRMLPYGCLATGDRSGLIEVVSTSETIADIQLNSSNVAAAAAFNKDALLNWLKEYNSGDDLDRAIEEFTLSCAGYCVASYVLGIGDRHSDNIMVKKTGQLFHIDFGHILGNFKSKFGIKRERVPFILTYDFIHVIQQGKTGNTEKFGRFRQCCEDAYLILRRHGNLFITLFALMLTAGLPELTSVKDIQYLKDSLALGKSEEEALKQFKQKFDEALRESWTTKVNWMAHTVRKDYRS
Structure (SMILES),IC50 (human PI3Kδ),% degradation in photostability assay (average) [1],IC50 (human PI3Kβ)
COCCOc1ccc([C@@H]2OC(=O)N(c3cc(-c4cnc(N)nc4C(F)(F)F)nc(N4CCOCC4)n3)[C@H]2CO)cc1 [Example 12],0.004 µM,12%,
"CC[C@H]1[C@H](c2ccc(OC)cc2)OC(=O)N1c1cc(-c2cnc(N)nc2C(F)(F)F)nc(N2CCOCC2)n1 (relative stereo) [Example 2, (4S*,5S*)-3-(2′-amino-2-morpholino-4′-(trifluoromethyl)-[4,5′-bipyrimidin]-6-yl)-4-ethyl-5-(4-methoxyphenyl)oxazolidin-2-one]",,3%,0.096 µM
CC[C@H]1[C@H](c2nccs2)OC(=O)N1c1cc(-c2cnc(N)nc2C(F)(F)F)nc(N2CCOCC2)n1 [Example 7],0.041 µM,,
"COc1ccc([C@@H]2OC(=O)N(c3cc(-c4cnc(N)nc4C(F)(F)F)nc(N4CCOCC4)n3)[C@H]2CO)cc1 [Example 3, (4S,5S)-3-(2′-Amino-2-morpholino-4′-(trifluoromethyl)-[4,5′-bipyrimidin]-6-yl)-4-(hydroxymethyl)-5-(4-methoxyphenyl)oxazolidin-2-one]",0.004 µM,3%,0.007 µM
CC1C(c2cccnc2)OC(=O)N1c1cc(-c2cnc(N)nc2C(F)(F)F)nc(N2CCOCC2)n1 (stereo not shown) [Example 9],0.01 µM,,
"C[C@H]1[C@H](c2nccs2)OC(=O)N1c1cc(-c2cnc(N)nc2C(F)(F)F)nc(N2CCOCC2)n1 [Example 1, (4S,5R)-3-(2′-Amino-2-morpholin-4-yl-4′-trifluoromethyl-[4,5′]bipyrimidinyl-6-yl)-4-methyl-5-thiazol-2-yl-oxazolidin-2-one]",,8%,0.009 µM
Nc1ncc(-c2cc(N3C(=O)O[C@@H](c4ccccc4)[C@@H]3CO)nc(N3CCOCC3)n2)c(C(F)(F)F)n1 [Example 10],0.031 µM,7%,0.005 µM
Nc1ncc(-c2cc(N3C(=O)O[C@@H](c4ccc(OCCCO)cc4)[C@@H]3CO)nc(N3CCOCC3)n2)c(C(F)(F)F)n1 [Example 14],,8%,
C[C@H]1[C@@H](c2nccs2)OC(=O)N1c1cc(-c2cnc(N)nc2C(F)(F)F)nc(N2CCOCC2)n1 [Example 11],,,0.01 µM
C[C@H]1[C@H](c2ccccc2)OC(=O)N1c1cc(-c2cnc(N)nc2C(F)(F)F)nc(N2CCOCC2)n1 [Example 5],0.147 µM,17%,
Nc1ncc(-c2cc(N3C(=O)O[C@@H](c4ccc(OCCO)cc4)[C@@H]3CO)nc(N3CCOCC3)n2)c(C(F)(F)F)n1 [Example 13],0.003 µM,4%,0.011 µM
CCC1C(c2cccnc2)OC(=O)N1c1cc(-c2cnc(N)nc2C(F)(F)F)nc(N2CCOCC2)n1 (stereo not shown) [Example 8],,,0.067 µM

# Source: patent publication US10202371B2, “Oxazolidin-2-one-pyrimidine derivatives and the use thereof as phosphatidylinositol-3-kinase inhibitors” (Novartis AG, priority 2012, dated 2019)
